Results taken from US20140047570A1, “ANIMAL MODEL OF HUMAN CANCER AND METHODS OF USE” (H. LEE MOFFITT CANCER CENTER AND RESEARCH INSTITUTE, INC., priority 2011, published 2014).

System: liver tumor of human pancreatic cancer
Assay: Diffusion MRI analysis of tumor response to drug treatment in vivo (liver xenograft)
Details: human pancreatic cancer tumor implanted in mouse liver; intraperitoneally 1 mg/kg/d; before vs 24 hours after initiation of treatment; FIG. 4C
Source text: FIGS. 4A-D show MRI analysis to assess tumor response to drug treatment in vivo. To evaluate tumor response to treatment in vivo in addition to US imaging technologies such as MRI that utilizes anatomical MRI, diffusion MRI, spectroscopy and Dynamic Contrast Enhanced (DCE) MRI can be used. Of these, diffusion, spectroscopy and DCE show great promise in determining early response to drug treatment, even before changes in tumor volume are observed. Anatomical and diffusion MRI techniques were used on the same liver tumor of human pancreatic cancer before (FIG. 4A) and 24 hours after (FIG. 4B) the initiation of gemcitabine (intraperitoneally 1 mg/kg/d) treatment. […] Laparoscopy or laparotomy can be used to assess tumor growth and to harvest tumor cells in liver (FIG. 4D).

Nc1ccn([C@@H]2O[C@H](CO)[C@@H](O)C2(F)F)c(=O)n1 [gemcitabine]
tumor water diffusion by diffusion MRI (early response to drug treatment): right shift in tumor water diffusion
